Each molecule was assayed against neutrophil elastase (Homo sapiens (Human), UniProt P08246) (assay: Human Neutrophil Elastase Assay). Settings: substrate MeOSuc-Ala-Ala-Pro-Val-AMC.
Assay type: biochemical
Method: Human Neutrophil Elastase Assay
All other materials were of the highest grade commercially available.
The following buffers were used: Compound buffer: 100 mM Tris, 500 mM NaCl, adjusted to pH 7.5; Assay buffer: 100 mM Tris, 500 mM NaCl, adjusted to pH 7.5, containing 0.01% BSA.
Assay conditions: Test compounds were prediluted in DMSO and subsequently in compound buffer (5% DMSO final). […] After inactivation of the enzyme, fluorescence intensities were measured at 380 nm excitation and 460 nm emission wavelengths.
Each plate contains wells with a high value control (DMSO+enzyme+substrate) and wells with a low value control (DMSO+inactivated enzyme+substrate). IC50 values were estimated using a sigmoidal concentration response curve with variable slope. Means of low values were taken as 0%, means of high values as 100%.

Sequence of neutrophil elastase (P08246 30-247): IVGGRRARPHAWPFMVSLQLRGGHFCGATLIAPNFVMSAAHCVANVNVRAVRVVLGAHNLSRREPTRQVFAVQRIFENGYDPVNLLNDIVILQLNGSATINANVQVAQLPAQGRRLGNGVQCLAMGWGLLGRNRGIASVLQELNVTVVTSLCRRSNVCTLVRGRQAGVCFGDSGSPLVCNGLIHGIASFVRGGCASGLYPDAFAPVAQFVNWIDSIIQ

SMILES	IC50
CC(=O)C1=C(C)N(c2cccc(C(F)(F)F)c2)C(=O)N(C)C1c1ccc(C#N)cc1C(=O)N1Cc2ccncc2C1 (stereo not drawn) [Example 1.66]	1.7 nM
CC(=O)C1=C(C)N(c2cccc(C(F)(F)F)c2)C(=O)N(C)C1c1ccc(C#N)cc1C(=O)NCc1ccc(C#N)o1 (stereo not drawn) [Example 1.67]	1.3 nM
CC(=O)C1=C(C)N(c2cccc(C(F)(F)F)c2)C(=O)N(C)C1c1ccc(C#N)cc1C(=O)N(C)Cc1ccncc1 (stereo not drawn) [Example 1.68]	< 1 nM
CC(=O)C1=C(C)N(c2cccc(C(F)(F)F)c2)C(=O)N(C)C1c1ccc(C#N)cc1C(=O)N1CCn2cncc2C1 (stereo not drawn) [Example 1.69]	< 1 nM
CC(=O)C1=C(C)N(c2cccc(C(F)(F)F)c2)C(=O)N(C)C1c1ccc(C#N)cc1C(=O)N1CCn2ccnc2C1 (stereo not drawn) [Example 1.70]	< 1 nM
CC(=O)C1=C(C)N(c2cccc(C(F)(F)F)c2)C(=O)N(C)C1c1ccc(C#N)cc1C(=O)N1Cc2cnn(C)c2C1 (stereo not drawn) [Example 1.71]	< 1 nM
CC(=O)C1=C(C)N(c2cccc(C(F)(F)F)c2)C(=O)N(C)C1c1ccc(C#N)cc1C(=O)N1CCc2nocc2C1 (stereo not drawn) [Example 1.72]	2.8 nM
CC(=O)C1=C(C)N(c2cccc(C(F)(F)F)c2)C(=O)N(C)C1c1ccc(C#N)cc1C(=O)N1CCn2cnnc2C1 (stereo not drawn) [Example 1.74]	< 1 nM
CC(=O)C1=C(C)N(c2cccc(C(F)(F)F)c2)C(=O)N(C)C1c1ccc(C#N)cc1C(=O)N(C)Cc1nccn1C (stereo not drawn) [Example 1.75]	< 1 nM
CC(=O)C1=C(C)N(c2cccc(C(F)(F)F)c2)C(=O)N(C)C1c1ccc(C#N)cc1C(=O)N(C)Cc1ccnn1C (stereo not drawn) [Example 1.76]	< 1 nM
CC(=O)C1=C(C)N(c2cccc(C(F)(F)F)c2)C(=O)N(C)C1c1ccc(C#N)cc1C(=O)N(C)Cc1ccn(C)n1 (stereo not drawn) [Example 1.78]	< 1 nM
CC(=O)C1=C(C)N(c2cccc(C(F)(F)F)c2)C(=O)N(C)C1c1ccc(C#N)cc1C(=O)N(C)Cc1nncn1C (stereo not drawn) [Example 1.79]	< 1 nM
CC(=O)C1=C(C)N(c2cccc(C(F)(F)F)c2)C(=O)N(C)C1c1ccc(C#N)cc1C(=O)N1CCN2CCCC2C1 (stereo not drawn) [Example 1.80]	6.3 nM
CC(=O)C1=C(C)N(c2cccc(C(F)(F)F)c2)C(=O)N(C)C1c1ccc(C#N)cc1C(=O)N1CCN(C2CC2)CC1 (stereo not drawn) [Example 1.81]	8.8 nM
CC(=O)C1=C(C)N(c2cccc(C(F)(F)F)c2)C(=O)N(C)C1c1ccc(C#N)cc1C(=O)N1CCN(C(C)C)CC1 (stereo not drawn) [Example 1.82]	2.7 nM
CC(=O)C1=C(C)N(c2cccc(C(F)(F)F)c2)C(=O)N(C)C1c1ccc(C#N)cc1C(=O)NC1CCN(C(C)C)C1 (stereo not drawn) [Example 1.83]	1.2 nM
CC(=O)C1=C(C)N(c2cccc(C(F)(F)F)c2)C(=O)N(C)C1c1ccc(C#N)cc1C(=O)NCCN(C)C (stereo not drawn) [Example 1.84]	< 1 nM
CCOC(=O)C1=C(C)N(c2cccc(C(F)(F)F)c2)C(=O)N(C)C1c1ccc(C#N)cc1C(=O)N(C)C (stereo not drawn) [Example 3, 4-(4-Cyano-2-dimethylcarbamoyl-phenyl)-3,6-dimethyl-2-oxo-1-(3-trifluoromethyl-phenyl)-1,2,3,4-tetrahydro-pyrimidine-5-carboxylic acid ethyl ester]	< 1 nM

Second part, the molecule after the results:

IC50	SMILES
< 1 nM	CC(=O)C1=C(C)N(c2cccc(C(F)(F)F)c2)C(=O)N(C)C1c1ccc(C#N)cc1C(=O)N1CC[C@@H](N)C1 (stereo partly drawn) [Example 2.10]
< 1 nM	CC(=O)C1=C(C)N(c2cccc(C(F)(F)F)c2)C(=O)N(C)C1c1ccc(C#N)cc1C(=O)N1CC[C@H](N)C1 (stereo partly drawn) [Example 2.11]
< 1 nM	CNCCN(C)C(=O)c1cc(C#N)ccc1C1C(C(C)=O)=C(C)N(c2cccc(C(F)(F)F)c2)C(=O)N1C (stereo not drawn) [Example 2.12]
< 1 nM	CC(=O)C1=C(C)N(c2cccc(C(F)(F)F)c2)C(=O)N(C)C1c1ccc(C#N)cc1C(=O)NCC(C)(C)N (stereo not drawn) [Example 2.13]
5.4 nM	CC(=O)C1=C(C)N(c2cccc(C(F)(F)F)c2)C(=O)N(C)C1c1ccc(C#N)cc1C(=O)N1CC2CC1CN2 (stereo not drawn) [Example 2.14]
4.5 nM	CC(=O)C1=C(C)N(c2cccc(C(F)(F)F)c2)C(=O)N(C)C1c1ccc(C#N)cc1C(=O)N1CCNC(C)C1 (stereo not drawn) [Example 2.15]
1.2 nM	CN[C@H]1CCN(C(=O)c2cc(C#N)ccc2C2C(C(C)=O)=C(C)N(c3cccc(C(F)(F)F)c3)C(=O)N2C)C1 (stereo partly drawn) [Example 2.16]
< 1 nM	CCOC(=O)C1=C(C)N(c2cccc(C(F)(F)F)c2)C(=O)N(C)C1c1ccc(C#N)cc1C(=O)NC1(C#N)CC1 (stereo not drawn) [Example 3.1]
3 nM	CCOC(=O)C1=C(C)N(c2cccc(C(F)(F)F)c2)C(=O)N(C)C1c1ccc(C#N)cc1C(=O)N1CCN(CC)CC1 (stereo not drawn) [Example 3.2]
3 nM	CCOC(=O)C1=C(C)N(c2cccc(C(F)(F)F)c2)C(=O)N(C)C1c1ccc(C#N)cc1C(N)=O (stereo not drawn) [Example 3.3]
3 nM	CCOC(=O)C1=C(C)N(c2cccc(C(F)(F)F)c2)C(=O)N(C)C1c1ccc(C#N)cc1C(=O)NC (stereo not drawn) [Example 3.4]
3 nM	CCNC(=O)c1cc(C#N)ccc1C1C(C(=O)OCC)=C(C)N(c2cccc(C(F)(F)F)c2)C(=O)N1C (stereo not drawn) [Example 3.5]
3 nM	C#CCNC(=O)c1cc(C#N)ccc1C1C(C(=O)OCC)=C(C)N(c2cccc(C(F)(F)F)c2)C(=O)N1C (stereo not drawn) [Example 3.6]
3 nM	CCOC(=O)C1=C(C)N(c2cccc(C(F)(F)F)c2)C(=O)N(C)C1c1ccc(C#N)cc1C(=O)NCC#N (stereo not drawn) [Example 3.7]
3 nM	CCOC(=O)C1=C(C)N(c2cccc(C(F)(F)F)c2)C(=O)N(C)C1c1ccc(C#N)cc1C(=O)NC1CC1 (stereo not drawn) [Example 3.8]
3 nM	CCOC(=O)C1=C(C)N(c2cccc(C(F)(F)F)c2)C(=O)N(C)C1c1ccc(C#N)cc1C(=O)N1CCC1 (stereo not drawn) [Example 3.9]
3 nM	CCOC(=O)C1=C(C)N(c2cccc(C(F)(F)F)c2)C(=O)N(C)C1c1ccc(C#N)cc1C(=O)NCCO (stereo not drawn) [Example 3.10]
< 1 nM	CCOC(=O)C1=C(C)N(c2cccc(C(F)(F)F)c2)C(=O)N(C)C1c1ccc(C#N)cc1C(=O)NCCF (stereo not drawn) [Example 3.11]
< 1 nM	CCOC(=O)C1=C(C)N(c2cccc(C(F)(F)F)c2)C(=O)N(C)C1c1ccc(C#N)cc1C(=O)N1CCCC1 (stereo not drawn) [Example 3.12]
< 1 nM	CCOC(=O)C1=C(C)N(c2cccc(C(F)(F)F)c2)C(=O)N(C)C1c1ccc(C#N)cc1C(=O)N1CC(O)C1 (stereo not drawn) [Example 3.13]
< 1 nM	CCOC(=O)C1=C(C)N(c2cccc(C(F)(F)F)c2)C(=O)N(C)C1c1ccc(C#N)cc1C(=O)NC1COC1 (stereo not drawn) [Example 3.14]
< 1 nM	CCOC(=O)C1=C(C)N(c2cccc(C(F)(F)F)c2)C(=O)N(C)C1c1ccc(C#N)cc1C(=O)NCC(F)F (stereo not drawn) [Example 3.18]
< 1 nM	CCOC(=O)C1=C(C)N(c2cccc(C(F)(F)F)c2)C(=O)N(C)C1c1ccc(C#N)cc1C(=O)NC12CCC1C2 (stereo not drawn) [Example 3.19]
1.4 nM	CCOC(=O)C1=C(C)N(c2cccc(C(F)(F)F)c2)C(=O)N(C)C1c1ccc(C#N)cc1C(=O)NC1CCOC1 (stereo not drawn) [Example 3.21]
2 nM	CCOC(=O)C1=C(C)N(c2cccc(C(F)(F)F)c2)C(=O)N(C)C1c1ccc(C#N)cc1C(=O)N1CCOCC1 (stereo not drawn) [Example 3.22]
1.3 nM	CCOC(=O)C1=C(C)N(c2cccc(C(F)(F)F)c2)C(=O)N(C)C1c1ccc(C#N)cc1C(=O)NCC(C)(C)O (stereo not drawn) [Example 3.23]
1 nM	CCOC(=O)C1=C(C)N(c2cccc(C(F)(F)F)c2)C(=O)N(C)C1c1ccc(C#N)cc1C(=O)N(C)CCOC (stereo not drawn) [Example 3.24]
